Measured values from patent US6875778B2, “Alkylene-tethered bis-nitroiminoimidazolidines, process for preparing the same, and insecticides containing the same” (Gifu University, priority 2002, dated 2005).

System: common cockroach
Experiment: insecticidal activity against the common cockroach (abdominal injection, minimum lethal dose)
Type: in vivo
Conditions: MLD = minimum lethal dose (moles/insect) at which two of three male adult common cockroaches became paralyzed or died; 1 to 10 μl of 1% by weight methanol solution injected into abdomen
Method: The insecticidal activity against the common cockroach was tested for the compounds of Examples 1 to 14 and the compound of Comparative Example 1. Methanol solutions containing 1% by weight of each compound were prepared. 1 to 10 μl of the methanol solution were injected into the abdomens of 3 male adult common cockroaches. The concentration at which two of the three adult insects became paralyzed or died, namely the minimum lethal dose (MLD: moles/insect) was then investigated.

Q: `O=[N+]([O-])N=C1N(Cc2ccc(Cl)nc2)CCN1Cc1cccc(CN2CCN(Cc3ccc(Cl)nc3)C2=N[N+](=O)[O-])c1` [Exp. 12, 1,3-bis[(6-chloronicotinyl)-2-nitroiminoimidazolidin-3-yl]methylbenzene] was tested. Which “log (1/MLD)” value did it give?
A: 7.71

Q: For `O=[N+]([O-])N=C1N(CCCN2CCN(Cc3ccc(Cl)nc3)C2=N[N+](=O)[O-])CCN1Cc1ccc(Cl)nc1` [Exp. 1, 1,3-bis[(6-chloronicotinyl)-2-nitroiminoimidazolidin-3-yl]propane], which “log (1/MLD)” value is on record?
A: 8.31

Q: Which “log (1/MLD)” value does the source give for `O=[N+]([O-])N=C1N(CCCCCCN2CCN(Cc3ccc(Cl)nc3)C2=N[N+](=O)[O-])CCN1Cc1ccc(Cl)nc1` [Exp. 4, 1,6-bis[(6-chloronicotinyl)-2-nitroiminoimidazolidin-3-yl]hexane] here?
A: 8.65

Q: Which “log (1/MLD)” value does the source give for `O=[N+]([O-])N=C1N(CCCCCCCN2CCN(Cc3ccc(Cl)nc3)C2=N[N+](=O)[O-])CCN1Cc1ccc(Cl)nc1` [Exp. 5, 1,7-bis[(6-chloronicotinyl)-2-nitroiminoimidazolidin-3-yl]heptane] here?
A: 8.55

Q: How did the “log (1/MLD)” value turn out when `O=[N+]([O-])N=C1N(CCCCCCCCCN2CCN(Cc3ccc(Cl)nc3)C2=N[N+](=O)[O-])CCN1Cc1ccc(Cl)nc1` [Exp. 7, 1,9-bis[(6-chloronicotinyl)-2-nitroiminoimidazolidin-3-yl]nonane] was run?
A: 8.56

Q: With `O=[N+]([O-])N=C1N(Cc2ccc(CN3CCN(Cc4ccc(Cl)nc4)C3=N[N+](=O)[O-])cc2)CCN1Cc1ccc(Cl)nc1` [Exp. 13, 1,4-bis[(6-chloronicotinyl)-2-nitroiminoimidazolidin-3-yl]methylbenzene] as the molecule, how does the “log (1/MLD)” value read?
A: 7.57

Q: For `O=[N+]([O-])N=C1N(CCCCCCCCN2CCN(Cc3ccc(Cl)nc3)C2=N[N+](=O)[O-])CCN1Cc1ccc(Cl)nc1` [Exp. 6, 1,8-bis[(6-chloronicotinyl)-2-nitroiminoimidazolidin-3-yl]octane], which “log (1/MLD)” value is on record?
A: 8.35

Q: `O=[N+]([O-])N=C1N(CCCCCCCCCCN2CCN(Cc3ccc(Cl)nc3)C2=N[N+](=O)[O-])CCN1Cc1ccc(Cl)nc1` [Exp. 8, 1,10-bis[(6-chloronicotinyl)-2-nitroiminoimidazolidin-3-yl]decane] was tested. Which “log (1/MLD)” value did it give?
A: 8.43

Q: Which “log (1/MLD)” value does the source give for `O=[N+]([O-])N=C1N(CCN2CCN(Cc3ccc(Cl)nc3)C2=N[N+](=O)[O-])CCN1Cc1ccc(Cl)nc1` [Comp. Exp. 1, 1,2-bis[(6-chloronicotinyl)-2-nitroiminoimidazolidin-3-yl]ethane, reference compound] here?
A: 7.38

Q: Which “log (1/MLD)” value does the source give for `O=[N+]([O-])N=C1N(CCCCCCN2CCN(Cc3cnc(Cl)s3)C2=N[N+](=O)[O-])CCN1Cc1cnc(Cl)s1` [Exp. 14, 1,6-bis[1-(2-chloro-5-thiazolylmethyl)-2-nitroiminoimidazolidin-3-yl]hexane] here?
A: 7.56

Q: `O=[N+]([O-])N=C1N(CCCCN2CCN(Cc3ccc(Cl)nc3)C2=N[N+](=O)[O-])CCN1Cc1ccc(Cl)nc1` [Exp. 2, 1,4-bis[(6-chloronicotinyl)-2-nitroiminoimidazolidin-3-yl]butane] was tested. Which “log (1/MLD)” value did it give?
A: 7.97
